The values below come from patent publication US20100190688A1, “Tetrapeptide analogs” (priority 2004, published 2010).

In test [1] the target is T1, BIR3-mediated Caspase-9 inhibition (UniProt Q9R0I6).
T1 construct: Nothing is printed for this assay
The test is described as follows: Caspase-9 rescue assay (relief of BIR3-mediated Caspase-9 inhibition). The note with it: average EC50, substrate Ac-LEHD-amc, pH 6.5. Format: biochemical, human Caspase-9; Rat or Chicken BIR3. As for the experimental part:
Additionally the compounds and compositions can be evaluated for their ability to achieve relief of BIR3-mediated Caspase-9 inhibition by measuring Caspase-9 reactivation. The fluorogenic substrate Ac-LEHD-7-amido-4-methylcoumarin is used in these methods. EC50 values of tested BIR3 inhibitors or Caspase-9 rescuers is calculated from the percentage of Caspase-9 reactivation in the mixtures containing serially diluted concentrations of tested compound. Typically, 10-point curves are generated for such EC50 determination.
Relief of BIR3-mediated Caspase-9 inhibition by BIR3 inhibitors was assayed by measuring Caspase-9 reactivation using the fluorogenic substrate Ac-LEHD-7-amido-4-methylcoumarin. A truncated form of human Caspase-9 that lacks the N-terminal Caspase recruitment domain (EPro-Caspase-9 or p35/p12) was used in the assay. This form of the enzyme has the full catalytic activity and the same substrate specificity as the full-length protein in the Apaf-1/Cytochrome C/dATP/Caspase-9 reconstituted system. Rat or Chicken BIR3 was used in this assay. […] This mixture was incubated for 40 min to allow equilibration at 25° C., and the assay progression was subsequently followed by monitoring the formation of fluorescent 7-amido-4-methylcoumarin over time at 460 nm using an excitation wavelength of 360 nm. […] EC50 values of tested BIR3 inhibitors or Caspase-9 rescuers were calculated from the percentage of Caspase-9 reactivation in the mixtures containing serially diluted concentrations of tested compound.

Test [2] concerns the target BIR3 domain of rat XIAP (Rattus norvegicus, UniProt Q9R0I6). The test is described as follows: Fluorescence polarization assay, binding to BIR3 from rat XIAP. (Fluorescence polarisation rises when a labelled molecule tumbles more slowly, as on binding a larger partner.)
Procedure: In fluorescence polarization assays a fluorescent probe is used. The binding affinity of compounds to BIR3 is measured by competitive displacement of a fluorescent probe using fluorescence polarization anisotropy. […] In other embodiments, the probe used is 6-(6-Hydroxy-3-oxo-3H-xanthen-9-yl)-N-(5-(2-methylamino-propionylamino)-6-oxo-6-[4-(1,2,3,4-tetrahydro-naphthalen-1-ylcarbamoyl)-thiazolidin-3-yl]-hexyl)-isophthalamic acid.
The binding affinity of compounds provided herein for rat BIR3 was measured by competitive displacement of a fluorescent probe using fluorescence polarization anisotropy. […] Control conditions were set up on each plate and include free probe 1 alone (5 nM), fully bound probe (5 μM BIR3+5 nM probe 1) and binding buffer blank. The-EC50 of binding was computed from a 4-parameter fit of the measured anisotropies using the SoftMax Pro 4.6 software package (Molecular Dynamics, Sunnyvale, Calif.).
Alternatively, probe 1 was substituted with probe 2: 6-(6-Hydroxy-3-oxo-3H-xanthen-9-yl)-N-{5-(2-methylamino-propionylamino)-6-oxo-6-[4-(1,2,3,4-tetrahydro-naphthalen-1-ylcarbamoyl)-thiazolidin-3-yl]-hexyl}-isophthalamic acid, for rat BIR3 and the concentrations of assay components changed. […] Controls were adjusted accordingly.

Structures are written as SMILES. Structures can show the parent of a compound that is named as a salt. Where two headings read alike, the source gives them in different places.

In general, EC50 refers to the concentration at which the effect is half-maximal.

Chain of BIR3 domain of rat XIAP (Q9R0I6 241-355): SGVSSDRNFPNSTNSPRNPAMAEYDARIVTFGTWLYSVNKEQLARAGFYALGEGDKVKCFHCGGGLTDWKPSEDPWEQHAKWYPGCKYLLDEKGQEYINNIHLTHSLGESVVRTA

As for `CNC(C)C(=O)NC(C(=O)N1Cc2ccccc2CC1C(=O)NC(Cc1ccccc1)Cc1ccccc1)C(C)C` (stereo not shown) [2-[3-Methyl-2-(2-methylamino-propionylamino)-butyryl]-1,2,3,4-tetrahydro-isoquinoline-3-carboxylic acid (1-benzyl-2-phenyl-ethyl)-amide], the 50% effective concentration (EC50) in test [1] was 1 to 10 µM; in test [2], less than 1 µM.
The like results for `CNC(C)C(=O)NC(C(=O)N(CCc1ccccc1)CC(=O)NC1CCCc2ccccc21)C(C)(C)C` (stereo not shown) [3,3-Dimethyl-2-(2-methylamino-propionylamino)-N-phenethyl-N-[(1,2,3,4-tetrahydro-naphthalen-1-ylcarbamoyl)-methyl]-butyramide TFA salt] were, in that order, more than 10 µM and 1 to 10 µM.
The like results for `CN[C@@H](C)C(=O)N[C@H](C(=O)N1COC[C@H]1C(=O)N[C@@H]1CCCc2ccccc21)C(C)C` [3-[3-Methyl-2-(2-methylamino-propionylamino)-butyryl]-oxazolidine-4-carboxylic acid (1,2,3,4-tetrahydro-naphthalen-1-yl)-amide] were, in that order, less than 1 µM and less than 1 µM.
Regarding `CNC(C)C(=O)NC(C(=O)N1CC2(CC1C(=O)NC1CCCc3ccccc31)SCCS2)C(C)C` (stereo not shown) [7-[3-Methyl-2-(2-methylamino-propionylamino)-butyryl]-1,4-dithia-7-aza-spiro[4.4]nonane-8-carboxylic acid (1,2,3,4-tetrahydro-naphthalen-1-yl)-amide], the EC50 in test [1] was 1 to 10 µM; in test [2] it was less than 1 µM.
As for `CN[C@@H](C)C(=O)N[C@H](C(=O)N(C)[C@@H](CCCNC(=N)NS(=O)(=O)c1ccc(C)cc1)C(=O)N[C@@H]1CCCc2ccccc21)C(C)C` [(S)-2-((S)-N,3-dimethyl-2-((S)-2-(methylamino)propanamido)butanamido)-N-((R)-1,2,3,4-tetrahydronaphthalen-1-yl)-5-(3-Htosylguanidino)pentanamide; 2,2,2-trifluoroacetic acid salt], the EC50 in test [1] was less than 1 µM; in test [2] (read-out: EC50 for binding to BIR3, average EC50, BIR3 domain of rat XIAP, competitive displacement of fluorescent probe), less than 1 µM.
In the case of `CNC(C)C(=O)NC1CCc2cccc3c2N(C1=O)C(C(=O)NC1CCCc2ccccc21)C3` (stereo not shown) [5-(2-Methylamino-propionylamino)-4-oxo-1,2,4,5,6,7-hexahydro-azepino[3,2,1-hi]indole-2-carboxylic ′acid (1,2,3,4-tetrahydro-naphthalen-1-yl)-amide], the 50% effective concentration (EC50) was 1 to 10 µM in test [1] and less than 1 µM in test [2].
With `CN[C@@H](C)C(=O)N[C@H](C(=O)N[C@@H](CCCCNS(=O)(=O)c1ccc(C)cc1)C(=O)NC1CCCc2ccccc21)C(C)C` (stereo in doubt) [2-[3-Methyl-2-(2-methylamino-propionylamino)-butyrylamino]-6-(toluene-4-sulfonylamino)-hexanoic acid (1,2,3,4-tetrahydro-naphthalen-1-yl)-amide], the EC50 in test [1] and in test [2] was less than 1 µM throughout.
In the case of `CNC(C)C(=O)NC(C(=O)N1CSCC1C(=O)NC(c1ccccc1)c1ccccc1)C(C)C` (stereo not shown) [3-[3-Methyl-2-(2-methylamino-propionylamino)-butyryl]-thiazolidine-4-carboxylic acid benzhydryl-amide], the EC50 in test [1] and in test [2] was less than 1 µM throughout.
